# Experimental data published in US9802899B2, “Heterocyclic compounds as pesticides” (BAYER CROPSCIENCE AG, priority 2012, dated 2017).
# Assay: Determination of the log P values by HPLC (formic acid method)
# Format: physicochemical
# Settings: reversed-phase HPLC column (C 18), reversed-phase column (C 18), acidic range (pH 3.4), 55° C.
# Experimental: 1) Description of Method for Determination of the Log P Values (Formic Acid Method)
# Eluents for determination in the acidic range (pH 3.4):
# Eluent A: acetonitrile+1 ml of formic acid/liter. Eluent B: water+0.9 ml of formic acid/liter.
# The lambda max values were determined in the maxima of the chromatographic signals using the UV spectra from 200 nm to 400 nm.
row,chromatographic logP,SMILES
1,1.85,Cc1ccc(-n2ccc(N)n2)c(Cl)c1 [1-(2-Chloro-4-methylphenyl)-1H-pyrazole-3-amine]
2,2.03,"O=C(Nc1ccn(-c2nccnc2F)n1)c1ccccc1Cl [Compound I-1-174, 2-Chloro-N-[1-(3-fluoropyrazin-2-yl)-1H-pyrazol-3-yl]benzamide]"
3,3.41,"N#Cc1ccc(C(F)(F)F)nc1-n1ccc(NC(=O)c2ccccc2C(F)(F)F)n1 [Compound I-1-569, N-{1-[3-Cyano-6-(trifluoromethyl)pyridin-2-yl]-1H-pyrazol-3-yl}-2-(trifluoromethyl)benzamide]"
4,1.5,"Cc1nc(F)c(-n2ccc(N)n2)cc1F [1-(2,5-Difluoro-6-methylpyridin-3-yl)-1H-pyrazole-3-amine]"
5,1.9,Nc1ccn(-c2cccc(Cl)c2F)n1 [1-(3-Chloro-2-fluorophenyl)-1H-pyrazole-3-amine]

# Second part, the compound before the results:
row,SMILES,chromatographic logP
1,Nc1ccn(-c2ncc(F)cc2Cl)n1 [1-(3-Chloro-5-fluoropyridin-2-yl)-1H-pyrazole-3-amine],0.98
2,Nc1ccn(-c2ncc(Cl)cc2F)n1 [1-(5-Chloro-3-fluoropyridin-2-yl)-1H-pyrazole-3-amine],1.27
3,"Nc1cnn(-c2ncc(C(F)(F)F)cc2Cl)n1 [2-[3-Chloro-5-(trifluoromethyl)pyridin-2-yl]-2H-1,2,3-triazole-4-amine]",1.74
4,"CC(=O)c1cc(F)c(-n2ccc(NC(=O)c3ccccc3C(F)(F)F)n2)c(F)c1 [Compound I-1-584, N-[1-(4-Acetyl-2,6-difluorophenyl)-1H-pyrazol-3-yl]-2-(trifluoromethyl)benzamide]",2.7

# Same assay, conditions: reversed-phase column (C 18), acidic range (pH 3.4), 55° C.
log P,SMILES,chromatographic logP
3.11,O=C(Nc1nn(-c2ccccc2Cl)c2ccccc12)c1cccnc1C(F)(F)F [Compound I-5-9],
1.72,O=C(Nc1ccn(-c2ncc(F)cc2F)n1)c1cccnc1Cl [Compound I-1-152],
2.39,O=C(Nc1cnn(-c2ncc(F)cc2F)n1)c1ccccc1I [Compound I-2-73],
2.89,O=C(Nc1ccn(-c2c(F)cccc2F)n1)c1ccccc1C1CC1 [Compound I-1-273],
2.42,CC1=C(C(=O)Nc2ccn(-c3c(F)cccc3F)n2)OCCO1 [Compound I-1-615],
2.23,O=C(Nc1ccn(-c2ncccc2Br)n1)c1ccccc1Cl [Compound I-1-553],
3.10,O=C(Nc1ccn(-c2ccccc2Cl)n1)c1cccnc1OC(F)(F)F [Compound I-1-344],
1.88,Nc1cc(NC(=O)c2ccccc2Cl)nn1-c1ccccc1Cl [Compound I-1-361],
2.67,N#Cc1cc(F)ccc1-n1ccc(NC(=O)c2ccccc2C(F)(F)F)n1 [Compound I-1-626],
2.78,O=C(Nc1cnn(-c2c(F)cccc2F)n1)c1ncccc1C(F)(F)F [Compound I-2-80],
2.53,Cc1nn(C)c(C(=O)Nc2ccn(-c3ncc(F)cc3F)n2)c1Br [Compound I-1-517],
2.55,N#Cc1ccccc1-n1ccc(NC(=O)c2ccccc2C(F)(F)F)n1 [Compound I-1-9],
2.36,O=C(Nc1cnn(-c2c(F)cccc2F)n1)c1ccncc1C(F)(F)F [Compound I-2-81],
2.10,CC1=C(C(=O)Nc2ccn(-c3ncc(F)cc3F)n2)CCCO1 [Compound I-1-548],
2.13,Cc1nn(C)c(C(=O)Nc2ccn(-c3ncc(F)cc3F)n2)c1C(F)F [Compound I-1-514],
2.15,O=C(Nc1ccn(-c2c(F)cccc2F)n1)c1nccnc1Cl [Compound I-1-100],
2.40,O=C(Nc1cnn(-c2c(F)cccc2F)n1)c1cccnc1C(F)(F)F [Compound I-2-76],

log P,SMILES,chromatographic logP
2.77,O=C(Nc1ccn(-c2ncc(Cl)cc2Cl)n1)c1c(F)cccc1F [Compound I-1-429],
3.15,O=C(Nc1ccn(-c2c(F)cccc2F)n1)c1ccccc1SC(F)(F)F [Compound I-1-88],
2.28,Cc1nn(-c2ncccc2Cl)nc1NC(=O)c1ccccc1I [Compound I-2-59],
3.02,CC(C)Cc1nn(C)c(C(=O)Nc2ccn(-c3ncc(F)cc3F)n2)c1[N+](=O)[O-] [Compound I-1-508],
2.31,O=C(Nc1ccn(-c2ncc(F)cc2F)n1)C1=C(C(F)F)OCCS1 [Compound I-1-636],
1.91,N#Cc1cc(F)ccc1-n1ccc(NC(=O)c2cccnc2Cl)n1 [Compound I-1-631],
2.42,CCc1nccnc1C(=O)Nc1ccn(-c2ncc(F)cc2F)n1 [Compound I-1-489],
2.91,CCOc1c(F)cccc1-n1ccc(NC(=O)c2ccccc2Br)n1 [Compound I-1-396],
1.90,Cn1cc([N+](=O)[O-])c(C(=O)Nc2ccn(-c3c(F)cccc3F)n2)n1 [Compound I-1-241],
1.53,O=C(Nc1ccn(-c2ncccc2F)n1)c1cccnc1Cl [Compound I-1-579],
2.57,O=C(Nc1ccn(-c2ncc(F)cc2F)n1)c1c(F)cccc1C(F)(F)F [Compound I-1-491],
1.93,Cn1ncnc1C(=O)Nc1ccn(-c2c(F)cccc2F)n1 [Compound I-1-236],
2.28,O=C(Nc1ccn(-c2cc(F)ccc2F)n1)c1cccnc1Cl [Compound I-1-218],
3.22,O=C(Nc1nn(-c2ccccc2Br)nc1Cl)c1ccccc1C(F)(F)F [Compound I-2-26],
2.24,O=C(Nc1ccn(-c2nccnc2F)n1)c1ccccc1C(F)(F)F [Compound I-1-173],
2.55,O=C(Nc1ccn(-c2c(F)cccc2F)n1)c1ccccc1Cl [Compound I-1-81],

# More lines, now with the values behind:
SMILES,log P,chromatographic logP
N#CCN(C(=O)c1ccccc1C(F)(F)F)c1ccn(-c2ncc(F)cc2F)n1 [Compound I-1-472],2.80,
O=C(Nc1cnn(-c2ncc(Cl)cc2Cl)n1)c1cccnc1C(F)(F)F [Compound I-2-64],2.54,
Cc1noc(C(F)(F)F)c1C(=O)Nc1ccn(-c2c(F)cccc2F)n1 [Compound I-1-291],2.80,
O=C(Nc1ccn(-c2ncc(Cl)cc2F)n1)c1c(F)cccc1C(F)(F)F [Compound I-1-591],2.98,
O=C(Nc1cnn(-c2ncccc2F)n1)c1cccnc1Br [Compound I-2-47],1.49,
N#Cc1c(F)cccc1-n1ccc(NC(=O)c2cccnc2C(F)(F)F)n1 [Compound I-1-618],2.26,
O=C(Nc1ccn(-c2ncc(Cl)cc2Cl)n1)c1cccc(F)c1C(F)(F)F [Compound I-1-434],2.61,
O=C(Nc1cnn(-c2c(F)cccc2F)n1)c1ccccc1Cl [Compound I-2-38],2.66,
Cc1cc(NC(=O)c2ncccc2C(F)(F)F)nn1-c1ccccc1Cl [Compound I-1-376],2.57,
"O=[N+]([O-])c1ccn(-c2c(F)cccc2F)c1 [Ex. 46-II, 1-(2,6-Difluorophenyl)-3-nitro-M-pyrrole]",2.58,
O=C(Nc1ccn(-c2ncccc2F)n1)c1ccccc1Br [Compound I-1-130],2.12,
O=C(Nc1ccn(-c2c(F)cccc2F)n1)c1cncnc1C(F)(F)F [Compound I-1-295],2.25,
O=C(c1ccccc1C(F)(F)F)N(CC(F)(F)F)c1ccn(-c2c(F)cccc2F)n1 [Compound I-1-265],3.59,
"CC(=O)NC1=NN(c2c(F)cccc2F)CC1 [N-[1-(2,6-Difluorophenyl)-4,5-dihydro-1H-pyrazol-3-yl]acetamide]",,1.46
Cc1ccccc1C(=O)Nc1ccn(-c2ccccc2Cl)n1 [Compound I-1-11],2.86,
O=C(Nc1cnn(-c2ncccc2F)n1)c1ccccc1Br [Compound I-2-46],2.04,
O=C(Nc1nn(-c2ncccc2Cl)nc1Cl)c1ccccc1C(F)(F)F [Compound I-2-11],2.60,
O=C(Nc1ccn(-c2ccccn2)n1)c1ccccc1Cl [Compound I-1-420],2.33,

SMILES,log P,chromatographic logP
O=C(Nc1cnn(-c2ncccc2Cl)n1)c1c(F)cccc1C(F)(F)F [Compound I-2-57],2.48,
Cn1nc(C(F)(F)F)c(Br)c1C(=O)Nc1ccn(-c2c(F)cccc2F)n1 [Compound I-1-303],3.37,
O=C(Nc1ccn(-c2cc(F)ccc2F)n1)c1ncccc1Cl [Compound I-1-220],3.00,
O=C(Nc1ccn(-c2cncc(F)n2)n1)c1ccccc1C(F)(F)F [Compound I-1-401],3.33,
O=C(Nc1cnn(-c2ccc(C(F)(F)F)cn2)n1)c1ccccc1I [Compound I-2-43],3.04,
Cc1nn(-c2ccccc2Cl)nc1NC(=O)c1ccccc1I [Compound I-2-24],2.92,
Cc1nn(C)cc1C(=O)Nc1ccn(-c2ncc(F)cc2F)n1 [Compound I-1-446],1.54,
Cn1ncc(F)c1C(=O)Nc1ccn(-c2ncc(F)cc2F)n1 [Compound I-1-538],2.03,
"CC(=O)Nc1ccn(-c2c(F)cccc2F)n1 [N-[1-(2,6-Difluorophenyl)-1H-pyrazol-3-yl]acetamide]",,1.33
O=C(Nc1ccn(-c2c(F)cccc2F)n1)c1cccc(Cl)c1Cl [Compound I-1-266],2.93,
Cn1cnc(C(=O)Nc2ccn(-c3ncc(F)cc3F)n2)c1[N+](=O)[O-] [Compound I-1-454],1.58,
O=C(Nc1ccn(-c2ncc(F)cc2F)n1)c1ccccc1C1CC1 [Compound I-1-486],2.68,
Cc1nn(C)c(F)c1C(=O)Nc1ccn(-c2c(F)cccc2F)n1 [Compound I-1-110],1.98,
Cc1nn(C(F)F)c(C(=O)Nc2ccn(-c3c(F)cccc3F)n2)c1Cl [Compound I-1-306],3.11,
CCC(C)n1ncc(I)c1C(=O)Nc1ccn(-c2ncc(F)cc2F)n1 (centres unmarked) [Compound I-1-456],3.28,
Cc1cc(NC(=O)c2ccccc2C(F)(F)F)nn1-c1ccccc1Cl [Compound I-1-347],2.58,
O=C(Nc1ccn(-c2cccc(F)c2F)n1)c1ccccc1I [Compound I-1-67],3.10,
